Three compounds from patent publication US9193669B2, “Compounds for treating ophthalmic diseases and disorders” (Acucela Inc., priority 2008, dated 2015) can be followed below.

Test [1] addresses T1, recombinant human RPE65 and LRAT (Homo sapiens, UniProt Q16518).
T1 construct: made in house; host or cells: HEK293 cell clone (homogenate) for RPE65 and LRAT; E. coli TOP10 for CRALBP
T1 sequence (Q16518 2-533 limits assumed): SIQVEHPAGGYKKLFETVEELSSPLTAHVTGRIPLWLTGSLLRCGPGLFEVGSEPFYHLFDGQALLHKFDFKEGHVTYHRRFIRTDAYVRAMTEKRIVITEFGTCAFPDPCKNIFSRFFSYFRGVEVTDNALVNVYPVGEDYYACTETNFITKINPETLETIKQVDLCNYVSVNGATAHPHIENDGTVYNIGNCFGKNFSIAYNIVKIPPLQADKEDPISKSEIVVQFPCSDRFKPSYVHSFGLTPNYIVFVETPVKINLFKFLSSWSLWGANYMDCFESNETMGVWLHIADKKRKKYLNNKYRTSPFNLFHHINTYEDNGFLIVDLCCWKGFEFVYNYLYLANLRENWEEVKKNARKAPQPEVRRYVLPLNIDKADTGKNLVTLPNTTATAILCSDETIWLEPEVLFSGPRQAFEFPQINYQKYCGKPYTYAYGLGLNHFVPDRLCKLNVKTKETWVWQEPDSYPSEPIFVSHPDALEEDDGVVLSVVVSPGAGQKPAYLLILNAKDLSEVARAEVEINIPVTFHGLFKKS
Kind of test: Human in vitro isomerase inhibition reaction. It is filed as biochemical. The note with it: human in vitro isomerase assay, FIG. 1 and FIG. 2. The protocol:
A homogenate of HEK293 cell clone expressing recombinant human RPE65 and LRAT were the source of the visual enzymes, and exogenous all-trans-retinol (about 20 μM) was used as the substrate. […] The 200 μL Bis-Tris Phosphate buffer (10 mM, pH 7.2) based reaction mixture also contains 0.5% BSA, and 1 mM NaPPi. In this assay, the reaction was carried out at 37° C. in duplicates for one hour and was terminated by addition of 300 μL methanol. The amount of reaction product, 11-cis-retinol, was measured by HPLC analysis following Heptane extraction of the reaction mixture.

The target of test [2] is T2, isomerase (Mus musculus, UniProt Q91ZQ5).
T2 construct: The recovery of 11-cis-retinal after bleaching can be used to estimate the activity of isomerase in vivo; from tissue; host or cells: eyes of living mice (CD-1; Balb/c also named)
T2 sequence (Q91ZQ5 1-533): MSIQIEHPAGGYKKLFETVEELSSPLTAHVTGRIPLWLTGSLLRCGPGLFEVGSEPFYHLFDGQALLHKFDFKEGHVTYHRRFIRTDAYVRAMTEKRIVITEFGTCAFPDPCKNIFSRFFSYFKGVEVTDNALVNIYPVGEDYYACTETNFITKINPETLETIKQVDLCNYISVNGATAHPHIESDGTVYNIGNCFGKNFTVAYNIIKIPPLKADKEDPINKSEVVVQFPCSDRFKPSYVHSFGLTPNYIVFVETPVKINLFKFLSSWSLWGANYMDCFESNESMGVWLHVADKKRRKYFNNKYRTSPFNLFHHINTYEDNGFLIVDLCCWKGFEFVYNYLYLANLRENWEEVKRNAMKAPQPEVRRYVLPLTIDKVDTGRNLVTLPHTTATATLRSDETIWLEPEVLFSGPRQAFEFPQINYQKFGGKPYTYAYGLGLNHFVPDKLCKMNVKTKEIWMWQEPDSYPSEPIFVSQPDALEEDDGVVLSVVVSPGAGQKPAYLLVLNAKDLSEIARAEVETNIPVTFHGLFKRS
Kind of test: In vivo murine isomerase assay. Details: species or system mice. The conditions noted are these: for inhibition in vivo at 1 mg/kg: mouse, po, 4 h, read-out: % Inibition 1 mg/kg, 4 h. The protocol:
The capability of compounds described herein to inhibit isomerase was determined by an in vivo murine isomerase assay. Brief exposure of the eye to intense light (“photobleaching” of the visual pigment or simply “bleaching”) is known to photo-isomerize almost all 11-cis-retinal in the retina. The recovery of 11-cis-retinal after bleaching can be used to estimate the activity of isomerase in vivo. Delayed recovery, as represented by lower 11-cis-retinal oxime levels, indicates inhibition of isomerization reaction. Procedures were performed essentially as described by Golczak et al., Proc. Natl. Acad. Sci. […] Mice were gavaged with the compounds described in the present disclosure. After about 2-24 hours in the dark, the mice were exposed to photobleaching of about 5,000 lux of white light for 10 minutes. The mice were allowed to recover for about 2 hours in the dark. The animals were then sacrificed by carbon dioxide inhalation. Retinoids were extracted from the eye and the regeneration of 11-cis-retinal was assessed at various time intervals. […] After the mice were sacrificed, the eyes were immediately removed and placed in liquid nitrogen for storage. The eyes were placed in about 500 μL of bis-tris propane buffer (10 mM, pH˜7.3) and about 20 μl of 0.8M hydroxylamine (pH˜7.3). The eyes were cut up into small pieces with small iris scissors and then thoroughly homogenized at 30000 rpm with a mechanical homogenizer (Polytron PT 1300 D) in the tube until no visible tissue remains. About 500 μL of methanol and about 500 μL of heptane was added to each tube. The tubes were attached to a vortexer so that the contents are mixed thoroughly for about 15 minutes in room temperature. […] The samples were analyzed on an Agilent 1100 HPLC system with normal phase column: SILICA (Beckman Coutlier, dp 5 μm, […]). […] Loading volume for each sample was about 100 μl; detection wavelength is 360 nm. The area under the curve for 11-cis-retinal oxime was calculated by Agilent Chemstation software and recorded manually. Data processing was performed using Prizm software. Positive control mice (no compound administered) were sacrificed fully dark-adapted and the eye retinoids analyzed. Light (bleached) control mice (no compound administered) were sacrificed and retinoids isolated and analyzed immediately after light treatment. A time course study was also performed to determine the isomerase inhibitory activity of compounds of the present disclosure. Female or male mice (such as Balb/c mice) (at least 4/group) received 0 to about 5 mg of compounds (in water) per kg bodyweight orally, by gavage. The animals were then “photo-bleached” (about 5000 Lux white light for about 10 minutes) at about 2, 4, 8, 16 and 24 hours after dosing, and returned to darkness to allow recovery of the 11-cis-retinal content of the eyes. Mice were sacrificed about 2 hours after bleaching, eyes were enucleated, and retinoid content was analyzed by HPLC. A dose response in vivo isomerase inhibition study is performed with compounds of the present disclosure. Male or female mice (such as Balb/c mice)(at least about 8/group) are dosed orally with about 0.01 to 25 mg/kg of the compounds of HCl salts of the compounds in sterile water as solution, and photobleached about 4 hours after dosing. Recovery and retinoid analysis is performed as described above. Dark control mice are vehicle-only treated, sacrificed fully dark adapted without light treatment, and analyzed. […]

For the compound `NCCC(O)c1cccc(NS(=O)(=O)C2CCCCC2)c1` (stereo not drawn) [Example 5, N-(3-(3-amino-1-hydroxypropyl)phenyl)cyclohexanesulfonamide], the “inhibition of 11-cis-retinol production” value in test [1] is recorded as “dose-dependent inhibition”. Moreover, in test [2], the inhibition in vivo at 1 mg/kg is -11.7 ± 4.36%.
Turning to `NCCCc1cccc(NS(=O)(=O)C2CCCCC2)c1` [Example 6, N-(3-(3-aminopropyl)phenyl)cyclohexanesulfonamide], in test [1], the “inhibition of 11-cis-retinol production” value is recorded as “dose-dependent inhibition”. For the same compound, the “% Inibition 1 mg/kg, 24 h” value in test [2] (1 mg/kg oral, 24 h after dosing, inhibition of 11-cis-retinal (oxime) recovery after photobleach) was determined as 48.70 ± 2.71%. Moreover, in test [2], the inhibition in vivo at 1 mg/kg was -11.9 ± 18.2%.
`[2H]/C(=C(/[2H])C(O)(CCC)CCC)c1cccc(C(O)CCN)c1` (stereo not drawn) [Example 117, (E)-4-(2-(3-(3-Amino-1-hydroxypropyl)phenyl)-1,2-dideuterovinyl)heptan-4-ol]: in test [2], the inhibition in vivo at 1 mg/kg worked out at 97.9 ± 1.5%.
